Assay results taken from patent US20060148730A1, “Method of treating tuberculosis” (priority 2003, published 2006).
Values after ≈ are worked out from the molar mass of the structure shown.

System: M. tuberculosis H37Rv
Assay: MIC vs. M. tuberculosis H37Rv, microplate Alamar Blue assay (MABA)
Assay type: cell-based
Conditions: not given

Compound | MIC against M. tuberculosis [µM]
cethromycin [ABT773, reference compound] | 3

Same assay, conditions: Mycobacterium tuberculosis, H37RV, Table 4; read-out: MIC

Compound | MIC [µM]
CC[C@H]1OC(=O)[C@H](C)C(O[C@H]2CC(C)(OC)[C@@H](OC(=O)Nc3ccccc3)[C@H](C)O2)[C@H](C)[C@@H](O[C@@H]2O[C@H](C)C[C@H](N(C)C)[C@H]2O)[C@](C)(OC)C[C@@H](C)C(=O)[C@H](C)[C@@H](O)[C@]1(C)O (stereo partly drawn) [Compound 1SH63] | 16 (≈ 13.9 µg/mL)
CC[C@H]1OC(=O)[C@H](C)[C@@H](OC2CC(C)(OC)C(O)C(C)O2)[C@H](C)[C@@H](OC2OC(C)CC(N(C)C)C2OC(=O)Nc2ccccc2)[C@](C)(OC)C[C@@H](C)C(=O)[C@H](C)[C@@H](O)[C@]1(C)O (stereo partly drawn) [Compound 3ZZ19] | 12 (≈ 10.4 µg/mL)

Same assay, conditions: Mycobacterium tuberculosis, H37RV, Table 5; read-out: MIC

Compound | MIC [µM]
CC[C@H]1OC(=O)[C@H](C)[C@@H](O)[C@H](C)[C@@H](OC2OC(C)CC(N(C)C)C2OC(=O)Nc2ccccc2)[C@](C)(OC)C/C(C)=C2/O[C@@]1(C)C=C2C (stereo partly drawn) [Compound 1GYG9] | 16 (≈ 10.8 µg/mL)

Same assay, conditions: Table 1a, 11,12-carbamate derivatives; anti-TB activity; read-out: MIC

Compound | MIC [µM]
CC[C@H]1OC(=O)[C@H](C)[C@@H](O[C@H]2CC(C)(OC)[C@@H](O)[C@H](C)O2)[C@H](C)[C@@H](O[C@@H]2O[C@H](C)C[C@H](N(C)C)[C@H]2O)[C@](C)(OC)C[C@@H](C)C(=O)[C@H](C)[C@H]2N(CCCCc3ccnc4ccccc34)C(=O)O[C@]12C (stereo partly drawn) [RU66080] | 0.44 (≈ 0.421 µg/mL)
CC[C@H]1OC(=O)[C@H](C)C(=O)[C@H](C)[C@@H](O[C@@H]2O[C@H](C)C[C@H](N(C)C)[C@H]2O)[C@](C)(OC)C[C@@H](C)C(=O)[C@H](C)[C@H]2N(CCCCn3ccnc3)C(=O)O[C@]12C [RU61205] | 112 (≈ 82.3 µg/mL)
CC[C@H]1OC(=O)[C@H](C)C(=O)[C@H](C)[C@@H](O[C@@H]2O[C@H](C)C[C@H](N(C)C)[C@H]2O)[C@](C)(OC)C[C@@H](C)C(=O)[C@H](C)[C@H]2N(NCCc3ccccc3)C(=O)O[C@]12C [RU70645] | 14 (≈ 10.2 µg/mL)
CC[C@H]1OC(=O)[C@H](C)C(=O)[C@H](C)[C@@H](O[C@@H]2O[C@H](C)C[C@H](N(C)C)[C@H]2O)[C@](C)(OC)C[C@@H](C)C(=O)[C@H](C)[C@H]2N(CCCn3cnc4c3c(=O)n(C)c(=O)n4C)C(=O)O[C@]12C [RU66740] | >128
cethromycin [ABT773, reference compound] | 3

Same assay, conditions: Table 2a, 11,12-diols; anti-TB activity; read-out: MIC

Compound | MIC [µM]
CC[C@H]1OC(=O)[C@H](C)C(=O)[C@H](C)[C@@H](O[C@@H]2O[C@H](C)C[C@H](N(C)C)[C@H]2O)[C@](C)(OC)C[C@@H](C)C(=NOC2CCCN(C/C=C/c3ccc(-c4ccccc4)cc3)C2)[C@H](C)[C@@H](O)[C@]1(C)O (stereo partly drawn) [RU61804] | 0.5 (≈ 0.439 µg/mL)

Same assay, conditions: Table 3; parallel-synthesis carbazate library products, SPE purified; read-out: MIC

Compound | MIC [µM]
CC[C@H]1OC(=O)[C@H](C)[C@@H](O[C@H]2CC(C)(OC)[C@@H](O)[C@H](C)O2)[C@H](C)[C@@H](O[C@@H]2O[C@H](C)C[C@H](N(C)C)[C@H]2O)[C@](C)(OC)C[C@@H](C)C(=O)[C@H](C)[C@H]2N(NC/C=C/c3ccccc3)C(=O)O[C@]12C (stereo partly drawn) [A4′] | 7 (≈ 6.33 µg/mL)
CC[C@H]1OC(=O)[C@H](C)[C@@H](O[C@H]2CC(C)(OC)[C@@H](O)[C@H](C)O2)[C@H](C)[C@@H](O[C@@H]2O[C@H](C)C[C@H](N(C)C)[C@H]2O)[C@](C)(OC)C[C@@H](C)C(=O)[C@H](C)[C@H]2N(NCc3[nH]ncc3Br)C(=O)O[C@]12C (stereo partly drawn) [D1′] | 23 (≈ 21.8 µg/mL)
CC[C@H]1OC(=O)[C@H](C)[C@@H](O[C@H]2CC(C)(OC)[C@@H](O)[C@H](C)O2)[C@H](C)[C@@H](O[C@@H]2O[C@H](C)C[C@H](N(C)C)[C@H]2O)[C@](C)(OC)C[C@@H](C)C(=O)[C@H](C)[C@H]2N(NCc3c(Cl)cccc3Cl)C(=O)O[C@]12C (stereo partly drawn) [H1′] | 11 (≈ 10.4 µg/mL)
CC[C@H]1OC(=O)[C@H](C)[C@@H](O[C@H]2CC(C)(OC)[C@@H](O)[C@H](C)O2)[C@H](C)[C@@H](O[C@@H]2O[C@H](C)C[C@H](N(C)C)[C@H]2O)[C@](C)(OC)C[C@@H](C)C(=O)[C@H](C)[C@H]2N(NCc3csc(-c4ccccc4)n3)C(=O)O[C@]12C (stereo partly drawn) [F9′] | 12.6 (≈ 12.1 µg/mL)
CC[C@H]1OC(=O)[C@H](C)[C@@H](O[C@H]2CC(C)(OC)[C@@H](O)[C@H](C)O2)[C@H](C)[C@@H](O[C@@H]2O[C@H](C)C[C@H](N(C)C)[C@H]2O)[C@](C)(OC)C[C@@H](C)C(=O)[C@H](C)[C@H]2N(NCc3c(C)[nH]c4ccc([N+](=O)[O-])cc34)C(=O)O[C@]12C (stereo partly drawn) [B11′] | >22
CC[C@H]1OC(=O)[C@H](C)[C@@H](O[C@H]2CC(C)(OC)[C@@H](O)[C@H](C)O2)[C@H](C)[C@@H](O[C@@H]2O[C@H](C)C[C@H](N(C)C)[C@H]2O)[C@](C)(OC)C[C@@H](C)C(=O)[C@H](C)[C@H]2N(NCc3c[nH]nc3-c3ccc(F)cc3)C(=O)O[C@]12C (stereo partly drawn) [D5′] | 25 (≈ 24.1 µg/mL)
CC[C@H]1OC(=O)[C@H](C)[C@@H](O[C@H]2CC(C)(OC)[C@@H](O)[C@H](C)O2)[C@H](C)[C@@H](O[C@@H]2O[C@H](C)C[C@H](N(C)C)[C@H]2O)[C@](C)(OC)C[C@@H](C)C(=O)[C@H](C)[C@H]2N(NCc3cnccc3NC(=O)C(C)(C)C)C(=O)O[C@]12C (stereo partly drawn) [E2′] | >27
CC[C@H]1OC(=O)[C@H](C)[C@@H](O[C@H]2CC(C)(OC)[C@@H](O)[C@H](C)O2)[C@H](C)[C@@H](O[C@@H]2O[C@H](C)C[C@H](N(C)C)[C@H]2O)[C@](C)(OC)C[C@@H](C)C(=O)[C@H](C)[C@H]2N(NCc3c(-c4ccccc4)noc3C)C(=O)O[C@]12C (stereo partly drawn) [C10′] | 12 (≈ 11.5 µg/mL)
CC[C@H]1OC(=O)[C@H](C)[C@@H](O[C@H]2CC(C)(OC)[C@@H](O)[C@H](C)O2)[C@H](C)[C@@H](O[C@@H]2O[C@H](C)C[C@H](N(C)C)[C@H]2O)[C@](C)(OC)C[C@@H](C)C(=O)[C@H](C)[C@H]2N(NCc3cccn3CCC#N)C(=O)O[C@]12C (stereo partly drawn) [E10′] | 20 (≈ 18.4 µg/mL)
CC[C@H]1OC(=O)[C@H](C)[C@@H](O[C@H]2CC(C)(OC)[C@@H](O)[C@H](C)O2)[C@H](C)[C@@H](O[C@@H]2O[C@H](C)C[C@H](N(C)C)[C@H]2O)[C@](C)(OC)C[C@@H](C)C(=O)[C@H](C)[C@H]2N(NCC3=Cc4ccccc4OC3)C(=O)O[C@]12C (stereo partly drawn) [G6′] | 11 (≈ 10.3 µg/mL)
CC[C@H]1OC(=O)[C@H](C)[C@@H](O[C@H]2CC(C)(OC)[C@@H](O)[C@H](C)O2)[C@H](C)[C@@H](O[C@@H]2O[C@H](C)C[C@H](N(C)C)[C@H]2O)[C@](C)(OC)C[C@@H](C)C(=O)[C@H](C)[C@H]2N(NCc3c(C)noc3C)C(=O)O[C@]12C (stereo partly drawn) [C6′] | >17
CC[C@H]1OC(=O)[C@H](C)[C@@H](O[C@H]2CC(C)(OC)[C@@H](O)[C@H](C)O2)[C@H](C)[C@@H](O[C@@H]2O[C@H](C)C[C@H](N(C)C)[C@H]2O)[C@](C)(OC)C[C@@H](C)C(=O)[C@H](C)[C@H]2N(NCc3c(Sc4ccc(Cl)cc4)nc4sccn34)C(=O)O[C@]12C (stereo partly drawn) [H11′] | 35.4 (≈ 37.8 µg/mL)
CC[C@H]1OC(=O)[C@H](C)[C@@H](O[C@H]2CC(C)(OC)[C@@H](O)[C@H](C)O2)[C@H](C)[C@@H](O[C@@H]2O[C@H](C)C[C@H](N(C)C)[C@H]2O)[C@](C)(OC)C[C@@H](C)C(=O)[C@H](C)[C@H]2N(NCc3cc(C(=O)OC)c(C)o3)C(=O)O[C@]12C (stereo partly drawn) [A12′] | >12
CC[C@H]1OC(=O)[C@H](C)[C@@H](O[C@H]2CC(C)(OC)[C@@H](O)[C@H](C)O2)[C@H](C)[C@@H](O[C@@H]2O[C@H](C)C[C@H](N(C)C)[C@H]2O)[C@](C)(OC)C[C@@H](C)C(=O)[C@H](C)[C@H]2N(NCc3cncn3C)C(=O)O[C@]12C (stereo partly drawn) [B5′] | >27
CC[C@H]1OC(=O)[C@H](C)[C@@H](O[C@H]2CC(C)(OC)[C@@H](O)[C@H](C)O2)[C@H](C)[C@@H](O[C@@H]2O[C@H](C)C[C@H](N(C)C)[C@H]2O)[C@](C)(OC)C[C@@H](C)C(=O)[C@H](C)[C@H]2N(NCc3cn(Cc4ccccc4)c4ccccc34)C(=O)O[C@]12C (stereo partly drawn) [C2′] | 7 (≈ 7.05 µg/mL)
CC[C@H]1OC(=O)[C@H](C)[C@@H](O[C@H]2CC(C)(OC)[C@@H](O)[C@H](C)O2)[C@H](C)[C@@H](O[C@@H]2O[C@H](C)C[C@H](N(C)C)[C@H]2O)[C@](C)(OC)C[C@@H](C)C(=O)[C@H](C)[C@H]2N(NCc3cccn3-c3ccc(C(F)(F)F)cc3)C(=O)O[C@]12C (stereo partly drawn) [F1′] | 17.6 (≈ 17.8 µg/mL)

Same assay, conditions: Table 4; read-out: MIC

Compound | MIC [µM]
CCC1OC(=O)C(C)C(OC2CC(C)(OC)C(O)C(C)O2)C(C)C(OC2OC(C)CC(N(C)C)C2O)C(C)(OC)CC(C)C(=NOC2CCCN(C(=O)OCc3ccccc3)C2)C(C)C(O)C1(C)O (stereo not drawn) [ITR0011] | 6.0 (≈ 5.88 µg/mL)
CCC1OC(=O)C(C)C(OC2CC(C)(OC)C(O)C(C)O2)C(C)C(OC2OC(C)CC(N(C)C)C2O)C(C)(OC)CC(C)C(=NOC2CCCNC2)C(C)C(O)C1(C)O (stereo not drawn) [ITR0009] | 24 (≈ 20.3 µg/mL)

Same assay, conditions: Table 5; read-out: MIC

Compound | MIC [µM]
CCC1OC(=O)C(C)C(OC2CC(C)(OC)C(O)C(C)O2)C(C)C(OC2OC(C)CC(N(C)C)C2O)C(C)(O)CC(C)C(=NNCc2ccc(C(F)(F)F)cc2)C(C)C(O)C1(C)O (stereo not drawn) [Compound 1OK133] | 25 (≈ 22.7 µg/mL)
CCC1OC(=O)C(C)C(OC2CC(C)(OC)C(O)C(C)O2)C(C)C(OC2OC(C)CC(N(C)C)C2O)C(C)(O)CC(C)C(=NNC2CCCCC2)C(C)C(O)C1(C)O (stereo not drawn) [Compound 1OK107] | 3.9 (≈ 3.24 µg/mL)
CC[C@H]1OC(=O)[C@H](C)[C@@H](O)[C@H](C)[C@@H](O[C@@H]2O[C@H](C)C[C@H](N(C)C)[C@H]2O)[C@](C)(OC)C[C@@H](C)C(=NOCCCc2ccccc2)[C@H](C)[C@@H](O)[C@]1(C)O [Compound 2GY15] | 6.3 (≈ 4.55 µg/mL)
CCC1OC(=O)C(C)C(OCc2ccccc2)C(C)C(OC2OC(C)CC([N+](C)(C)Cc3ccccc3)C2OCc2ccccc2)C(C)(OC)CC(C)C(=NOCc2ccccc2)C(C)C(O)C1(C)O (stereo not drawn) [Compound 2GY12] | 6.3
CCC1OC(=O)C(C)C(OC2CC(C)(OC)C(O)C(C)O2)C(C)C(OC2OC(C)CC(N(C)C)C2O)C(C)(OC)CC(C)C(=NOCC(=O)c2ccc(-c3ccccc3)cc2)C(C)C(O)C1(C)O (stereo not drawn) [Compound 1GY53] | 6.8 (≈ 6.51 µg/mL)
CCCCCCNC(=O)OC1C(OC2C(C)C(OC3CC(C)(OC)C(O)C(C)O3)C(C)C(=O)OC(CC)C(C)(O)C(O)C(C)C(=O)C(C)CC2(C)OC)OC(C)CC1N(C)C (stereo not drawn) [Compound 1SH88] | 15 (≈ 13.1 µg/mL)
CCC1OC(=O)C(C)C(O)C(C)C(OC2OC(C)CC(N(C)C)C2O)C(C)(OC)CC(C)C(=NOCCC2CCCCC2)C(C)C(O)C1(C)O (stereo not drawn) [Compound 2GY5] | 3.1 (≈ 2.22 µg/mL)

Same assay, conditions: result in words

Compound | anti-TB activity / MIC in words
CC[C@H]1OC(=O)[C@H](C)C(=O)[C@H](C)[C@@H](O[C@@H]2O[C@H](C)C[C@H](N(C)C)[C@H]2O)[C@](C)(OC)C[C@@H](C)C(=NOC2CCCN(C/C=C/c3ccc(-c4ccccc4)cc3)C2)[C@H](C)[C@@H](O)[C@]1(C)O (stereo partly drawn) [RU61804] | most potent of the tested 9-oxime compounds
